Consider three molecules from US7208494B2, “5HT2c receptor agonists” (Hoffmann-La Roche Inc., priority 2003, dated 2007).

The target in one experiment is T1, human 5-HT2B receptors (Homo sapiens, UniProt P41595).
T1 construct: expressed in transfected cells; host or cells: CHO cell line
Nature of the experiment: Binding to 5-HT2B receptor, [3H]-5-HT, Method (b). The note with it: human 5-HT2B in CHO cell line, read-out: Ki (2B). On the procedure: (§1) The binding of compounds of formula (I) to serotonin receptors was determined in vitro by standard methods. The preparations were investigated in accordance with the assays given hereinafter.
Method (b): For the binding to the 5-HT2B receptor the 5-HT2B receptors were radiolabeled with [^3H]-5-HT. The affinity of the compounds for human 5-HT2B receptors in a CHO cell line was determined according to the procedure of K. Schmuck, C. Ullmer, P. Engels and H. Lubbert, FEBS Lett., 1994, 342, 85–90.

Experiment [1] addresses T2, 5-HT2C receptor (Homo sapiens, UniProt P28335).
T2 sequence (P28335 33-458): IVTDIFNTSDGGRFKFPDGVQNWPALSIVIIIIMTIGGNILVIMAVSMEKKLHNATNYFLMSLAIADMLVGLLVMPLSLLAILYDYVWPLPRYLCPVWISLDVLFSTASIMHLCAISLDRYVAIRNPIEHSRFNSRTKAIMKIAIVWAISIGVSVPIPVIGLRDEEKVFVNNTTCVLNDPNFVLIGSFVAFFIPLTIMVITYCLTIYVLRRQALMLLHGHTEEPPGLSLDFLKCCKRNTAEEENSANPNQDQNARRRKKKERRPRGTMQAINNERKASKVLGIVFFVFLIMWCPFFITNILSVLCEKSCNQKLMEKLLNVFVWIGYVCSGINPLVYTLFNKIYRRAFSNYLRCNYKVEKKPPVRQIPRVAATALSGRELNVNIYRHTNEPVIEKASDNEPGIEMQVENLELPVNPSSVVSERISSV
In words: Functional activity, FLIPR calcium assay, h5-HT2C. In kind it is cell-based. Also on record: expressed in transfected cells; host or cells: CHO cells. The settings on record: for EC50: CHO cells expressing human 5-HT2C, FLIPR; for h5-HT2C Rel. Eff.: relative to response of 10 μM 5-HT (defined as 100%). The protocol: (§2) The functional activity of compounds of formula (I) was assayed using a Fluorimetric Imaging Plate reader (FLIPR). CHO cells expressing the human 5-HT2C or human 5-HT2A receptors were counted and plated into standard 96 well microtitre plates on the day before testing to give a confluent monolayer. The cells were then dye loaded with the calcium sensitive dye, Fluo-3-AM. Unincorporated dye was removed using an automated cell washer to leave a total volume of 100 μL/well of assay buffer (Hanks balanced salt solution containing 20 mM Hepes and 2.5 mM probenecid). The drug (dissolved in 50 μL of the assay buffer) was added at a rate of 70 μL/sec to each well of the FLIPR 96 well plate during fluorescence measurements. The measurements were taken at 1 sec intervals and the maximum fluorescent signal was measured (approx 10–15 secs after drug addition) and compared with the response produced by 10 μM 5-HT (defined as 100%) to which it was expressed as a percentage response (relative efficacy). Dose response curves were constructed using Graphpad Prism (Graph Software Inc.).

The target of experiment [2] is T3, 5-HT2A receptor (Homo sapiens, UniProt P28223). Nature of the experiment: Functional activity, FLIPR calcium assay, h5-HT2A. In kind it is cell-based. Also on record: expressed in transfected cells; host or cells: CHO cells. The note with it: for EC50: CHO cells expressing human 5-HT2A, FLIPR; for h5-HT2A Rel. Eff.: relative to response of 10 μM 5-HT (defined as 100%). On the procedure: as §2

Experiment [3] concerns the target T2, 5-HT2C receptor. In words: Binding to 5-HT2C receptor, [3H]-5-HT, Method (a). Also on record: expressed in transfected cells; host or cells: CHO cell line. The note with it: CHO cell line, read-out: Ki (2C). On the procedure: as §1
Method (a): For the binding to the 5-HT2C receptor the 5-HT2C receptors were radiolabeled with [^3H]-5-HT. The affinity of the compounds for 5-HT2C receptors in a CHO cell line was determined according to the procedure of D. Hoyer, G. Engel and H. O. Kalkman, European J. Pharmacol., 1985, 118, 13–23.

Experiment [4] has as its target T3, 5-HT2A receptor. Nature of the experiment: Binding to 5-HT2A receptor, [125I]-DOI, Method (c). Also on record: expressed in transfected cells; host or cells: CHO cell line. The note with it: CHO cell line, read-out: Ki (2A). On the procedure:
as §1
Method (c): For the binding to the 5-HT2A receptor the 5-HT2A receptors were radiolabeled with [^125I]-DOI. The affinity of the compounds for 5-HT2A receptors in a CHO cell line was determined according to the procedure of D. J. McKenna and S. J. Peroutka, J. Neurosci., 1989, 9, 3482–90.

T1 sequence (P41595 whole entry): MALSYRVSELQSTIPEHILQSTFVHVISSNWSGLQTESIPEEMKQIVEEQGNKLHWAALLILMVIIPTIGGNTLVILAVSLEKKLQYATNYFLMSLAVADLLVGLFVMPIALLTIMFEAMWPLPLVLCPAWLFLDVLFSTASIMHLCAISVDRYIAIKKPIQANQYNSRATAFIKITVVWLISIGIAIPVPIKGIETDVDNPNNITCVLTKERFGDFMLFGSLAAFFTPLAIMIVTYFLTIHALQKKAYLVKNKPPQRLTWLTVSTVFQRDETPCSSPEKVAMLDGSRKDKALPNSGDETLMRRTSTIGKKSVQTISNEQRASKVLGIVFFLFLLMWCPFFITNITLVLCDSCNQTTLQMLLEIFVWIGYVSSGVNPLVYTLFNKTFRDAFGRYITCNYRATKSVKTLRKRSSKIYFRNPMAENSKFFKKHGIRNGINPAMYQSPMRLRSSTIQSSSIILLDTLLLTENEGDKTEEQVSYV
T3 sequence (P28223 whole entry): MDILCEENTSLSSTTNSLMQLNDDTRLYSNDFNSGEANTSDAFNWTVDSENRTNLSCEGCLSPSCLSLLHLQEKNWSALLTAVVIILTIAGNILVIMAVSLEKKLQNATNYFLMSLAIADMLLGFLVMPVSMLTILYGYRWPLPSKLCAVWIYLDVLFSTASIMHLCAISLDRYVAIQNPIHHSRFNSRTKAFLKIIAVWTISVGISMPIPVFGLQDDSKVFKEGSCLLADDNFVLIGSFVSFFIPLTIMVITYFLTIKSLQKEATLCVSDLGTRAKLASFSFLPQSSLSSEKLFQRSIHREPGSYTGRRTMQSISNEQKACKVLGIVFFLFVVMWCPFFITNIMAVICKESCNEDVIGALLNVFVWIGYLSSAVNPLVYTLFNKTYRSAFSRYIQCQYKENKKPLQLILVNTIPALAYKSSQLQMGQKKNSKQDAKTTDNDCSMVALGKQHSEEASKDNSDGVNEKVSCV

On to `C[C@@H]1CNC[C@H]2Cc3cc(Cl)c(C(F)F)nc3N21` [Example 23, (4R,9aR)-7-Chloro-6-difluoromethyl-4-methyl-1,2,3,4,9,9a-hexahydro-2,4a,5-triaza-fluorene], for which the Ki on human 5-HT2B receptors amounted to 12 nM; on 5-HT2C receptor [3], 8 nM; at 5-HT2A receptor [4], 25 nM. The concentration giving a half-maximal response (EC50) at 5-HT2C receptor [1] was 14 nM; at 5-HT2A receptor [2] it was 70 nM. In addition, at 5-HT2C receptor [1], the “h5-HT2C Rel. Eff.” value is recorded as 97%. In addition, the “h5-HT2A Rel. Eff.” value at 5-HT2A receptor [2] came to 56%.
On to `CO[C@H](C)c1nc2c(cc1Cl)C[C@@H]1CNC[C@@H](C)N21` [Example 46, (4R,9aR)-7-Chloro-6-(1-(R)-methoxy-ethyl)-4-methyl-1,2,3,4,9,9a-hexahydro-2,4a,5-triaza-fluorene], for which the results for the Ki at human 5-HT2B receptors, on 5-HT2C receptor [3] and on 5-HT2A receptor [4] were 84 nM, 9 nM and 195 nM, respectively. The EC50 on 5-HT2C receptor [1] was 13 nM; at 5-HT2A receptor [2] it was 273 nM. For the same molecule, the “h5-HT2C Rel. Eff.” value on 5-HT2C receptor [1] is reported as 100%. In addition, the “h5-HT2A Rel. Eff.” value at 5-HT2A receptor [2] is 50%.
As for `Cc1c(F)cnc2c1C[C@@H]1CNC[C@@H](C)N21` [Example 80, (4R,9aR)-7-Fluoro-4,8-dimethyl-1,2,3,4,9,9a-hexahydro-2,4a,5-triaza-fluorene], the inhibition constant Ki at human 5-HT2B receptors is 87 nM; at 5-HT2C receptor [3], 6 nM; at 5-HT2A receptor [4] it was 86 nM. For the same molecule, the EC50 at 5-HT2C receptor [1] is 13 nM; at 5-HT2A receptor [2], 178 nM. Besides, the “h5-HT2C Rel. Eff.” value on 5-HT2C receptor [1] came to 98%. At 5-HT2A receptor [2], the “h5-HT2A Rel. Eff.” value is given as 56%.
